Assay results taken from patent US20140045890A1, “NOVEL COMPOUNDS” (SYNGENTA PARTICIPATIONS AG, priority 2011, published 2014).
“And” between values parts separate entries of the source, which are not always exact repeats. Identical values can stand only once.

Assays:
[1] = test system: Blumeria qraminis f. sp. tritici (Erysiphe qraminis f. sp. tritici); assay: Blumeria graminis f. sp. tritici / wheat / leaf disc preventative (powdery mildew on wheat); type: in vivo; conditions: foliar, wheat leaf segments cv. Kanzler, inoculated 1 day after application, assessed 6-8 days after application, read-out: inhibit fungal infestation (percent disease control compared to untreated)
Pythium ultimum = Pythium ultimum / liquid culture (seedling damping off); type: cell-based; conditions: Globisporangium ultimum, liquid culture in PDB, 24° C., 2-3 days after application, read-out: inhibit fungal infestation (inhibition of growth determined photometrically)
Phytophthora infestans = assay: whole plant or invertebrate; type: in vivo; conditions: in Solanum lycopersicum, foliar, read-out: inhibit fungal infestation (percent disease control compared to untreated)
[2] = test system: Phaeosphaeria nodorum (Septoria nodorum); assay: Phaeosphaeria nodorum (Septoria nodorum) / wheat / leaf disc preventative (glume blotch); type: in vivo; conditions: Parastagonospora nodorum, foliar, wheat leaf segments cv. Kanzler, inoculated 2 days after application, assessed 5-7 days after application, read-out: inhibit fungal infestation (percent disease control compared to untreated)
Plasmopara viticola = Plasmopara viticola / grape / leaf disc preventative; type: in vivo; conditions: foliar, grape vine leaf disks, inoculated 1 day after application, assessed 6-8 days after application, read-out: inhibit fungal infestation (percent disease control compared to untreated)

Row | SMILES | inhibition at 200 ppm [1] [%] | melting point | inhibition at 200 ppm (Pythium ultimum) [%] | inhibition at 200 ppm (Phytophthora infestans) [%] | inhibition at 200 ppm [2] [%] | inhibition at 200 ppm (Plasmopara viticola) [%]
1 | CSC(Oc1cc(Cl)c2ncc(Br)cc2c1)C(=O)NCc1ccno1 (stereo not drawn) [Compound 1] | ≥ 80 | 143 °C |  |  |  | 
2 | CSC(Oc1ccc2ncc(I)cc2c1)C(=O)NCc1ccno1 (stereo not drawn) [Compound 2] | ≥ 80 | 153 °C | ≥ 80 |  |  | 
3 | CSC(Oc1ccc2ncc(Br)cc2c1)C(=O)NCc1ccno1 (stereo not drawn) [Compound 3] | ≥ 80 | 140 °C | ≥ 80 |  |  | 
4 | C#Cc1cnc2ccc(OC(SC)C(=O)NCc3ccno3)cc2c1 (stereo not drawn) [Compound 4] | ≥ 80 | 115 °C | ≥ 80 | ≥ 80 |  | 
5 | CSC(Oc1ccc2ncc(Br)cc2c1)C(=O)NCc1ccccn1 (stereo not drawn) [Compound 5] |  | 104 °C | ≥ 80 |  |  | 
6 | CSC(Oc1ccc2ncc(I)cc2c1)C(=O)NCc1ccccn1 (stereo not drawn) [Compound 6] | ≥ 80 | 109 °C | ≥ 80 |  |  | 
7 | C#Cc1cnc2c(C)cc(OC(SC)C(=O)NC(C)(C)c3ccccn3)cc2c1 (stereo not drawn) [Compound 7] | ≥ 80 | 113 °C | ≥ 80 | ≥ 80 | ≥ 80 | ≥ 80
8 | C#Cc1cnc2c(C)cc(OC(SC)C(=O)NC(C)(C)c3cccc(C)n3)cc2c1 (stereo not drawn) [Compound 16] | ≥ 80 | 123 °C | ≥ 80 |  |  | ≥ 80
9 | C#Cc1cnc2c(C)cc(OC(SC)C(=O)NC(C)(C)c3cc(C)ccn3)cc2c1 (stereo not drawn) [Compound 17] | ≥ 80 | 82 °C | ≥ 80 |  |  | ≥ 80
10 | C#Cc1cnc2ccc(OC(SC)C(=O)NC(C)(C)c3ncc(Cl)s3)cc2c1 (stereo not drawn) [Compound 19] | ≥ 80 | 125 °C | ≥ 80 |  |  | ≥ 80
11 | C#Cc1cnc2c(F)cc(OC(SC)C(=O)NC(C)(C)c3cc(CC)on3)cc2c1 (stereo not drawn) [Compound 21] | ≥ 80 | 133 °C | ≥ 80 | ≥ 80 |  | ≥ 80
12 | C#Cc1cnc2c(Cl)cc(OC(SC)C(=O)NC(C)(C)c3cc(CC)on3)cc2c1 (stereo not drawn) [Compound 22] | ≥ 80 | 157 °C | ≥ 80 | ≥ 80 |  | ≥ 80
13 | CCc1cc(C(C)(C)NC(=O)C(Oc2ccc3ncc(I)cc3c2)SC)no1 (stereo not drawn) [Compound 23] | ≥ 80 | 125 °C | ≥ 80 | ≥ 80 |  | ≥ 80
14 | C#Cc1cnc2ccc(OC(SC)C(=O)NCc3ccccn3)cc2c1 (stereo not drawn) [Compound 25] | ≥ 80 | 133 °C | ≥ 80 | ≥ 80 |  | 
15 | C#Cc1cnc2c(C)cc(OC(SC)C(=O)NC(C)(C)c3ccc(Cl)nc3)cc2c1 (stereo not drawn) [Compound 26] | ≥ 80 | 120 °C | ≥ 80 |  |  | ≥ 80
16 | C#Cc1cnc2ccc(OC(SC)C(=O)NC(C)(C)c3ccc(Cl)nc3)cc2c1 (stereo not drawn) [Compound 27] |  | 114 °C | ≥ 80 |  |  | 
17 | C#Cc1cnc2ccc(OC(SC)C(=O)NC(C)(C)c3nc(C)cs3)cc2c1 (stereo not drawn) [Compound 28] | ≥ 80 | 97 to 99 °C and 97 °C | ≥ 80 | ≥ 80 |  | ≥ 80
18 | C#Cc1cnc2ccc(OC(SC)C(=O)NCc3nccs3)cc2c1 (stereo not drawn) [Compound 29] | ≥ 80 | 178 °C | ≥ 80 |  |  | ≥ 80
19 | C#Cc1cnc2ccc(OC(SC)C(=O)NCc3nc(C)cs3)cc2c1 (stereo not drawn) [Compound 30] | ≥ 80 | 115 °C | ≥ 80 | ≥ 80 |  | ≥ 80
20 | C#Cc1cnc2ccc(OC(SC)C(=O)NCc3nc(C)c(C)s3)cc2c1 (stereo not drawn) [Compound 31] | ≥ 80 | 126 °C | ≥ 80 | ≥ 80 |  | 
21 | C#Cc1cnc2ccc(OC(SC)C(=O)NC(C)(C)c3ccccn3)cc2c1 (stereo not drawn) [Compound 33] | ≥ 80 |  | ≥ 80 | ≥ 80 | ≥ 80 | ≥ 80

Row | SMILES | inhibition at 200 ppm [1] [%] | melting point | inhibition at 200 ppm (Pythium ultimum) [%] | inhibition at 200 ppm (Phytophthora infestans) [%] | inhibition at 200 ppm [2] [%] | inhibition at 200 ppm (Plasmopara viticola) [%]
22 | C#Cc1cnc2c(C)cc(OC(SC)C(=O)NC(C)(C)c3ccon3)cc2c1 (stereo not drawn) [Compound 39, 2-[(3-ethynyl-8-methyl-6-quinolyl)oxy]-N-(1-isoxazol-3-yl-1-methyl-ethyl)-2-methylsulfanyl-acetamide] | ≥ 80 |  | ≥ 80 | ≥ 80 | ≥ 80 | ≥ 80
23 | C#Cc1cnc2ccc(OC(SC)C(=O)NC(C)(C)c3ccon3)cc2c1 (stereo not drawn) [Compound 44] | ≥ 80 |  | ≥ 80 | ≥ 80 | ≥ 80 | ≥ 80
24 | C#Cc1cnc2c(C)cc(OC(SC)C(=O)NC(C)(C)c3nocc3Br)cc2c1 (stereo not drawn) [Compound 45, N-[1-(4-bromoisoxazol-3-yl)-1-methyl-ethyl]-2-[(3-ethynyl-8-methyl-6-quinolyl)oxy]-2-methylsulfanyl-acetamide] | ≥ 80 | 63 to 65 °C | ≥ 80 |  | ≥ 80 | ≥ 80
25 | C#Cc1cnc2ccc(OC(SC)C(=O)NC(C)(C)c3nocc3Cl)cc2c1 (stereo not drawn) [Compound 51] | ≥ 80 |  | ≥ 80 | ≥ 80 | ≥ 80 | ≥ 80
26 | C#Cc1cnc2ccc(OC(SC)C(=O)NC(C)(C)c3cc(C)on3)cc2c1 (stereo not drawn) [Compound 53] | ≥ 80 |  | ≥ 80 | ≥ 80 | ≥ 80 | ≥ 80
27 | C#Cc1cnc2c(C)cc(OC(SC)C(=O)NC(CC)c3ccccn3)cc2c1 (stereo not drawn) [Compound 60] | ≥ 80 |  | ≥ 80 |  | ≥ 80 | 
28 | C#Cc1cnc2c(Cl)cc(OC(SC)C(=O)NC(C)(C)c3cc(C)on3)cc2c1 (stereo not drawn) [Compound 68] | ≥ 80 |  | ≥ 80 |  | ≥ 80 | ≥ 80
29 | C#Cc1cnc2ccc(OC(SC)C(=O)NC(C)(C)c3cc(Cl)on3)cc2c1 (stereo not drawn) [Compound 73] | ≥ 80 |  | ≥ 80 | ≥ 80 | ≥ 80 | ≥ 80
30 | C#Cc1cnc2c(C)cc(OC(SC)C(=O)NC(C)(C)c3nocc3C)cc2c1 (stereo not drawn) [Compound 75] |  |  | ≥ 80 |  | ≥ 80 | ≥ 80
31 | C#Cc1cnc2ccc(OC(SC)C(=O)NC(C)(C)c3nocc3C)cc2c1 (stereo not drawn) [Compound 78] | ≥ 80 |  | ≥ 80 |  | ≥ 80 | ≥ 80
32 | C#Cc1cnc2cc(F)c(OC(SC)C(=O)NC(C)(C)c3cccc(C)n3)cc2c1 (stereo not drawn) [Compound 111] | ≥ 80 |  | ≥ 80 |  | ≥ 80 | 
33 | C#Cc1cnc2c(Cl)cc(OC(SC)C(=O)NC(C)(C)c3cccc(C)n3)cc2c1 (stereo not drawn) [Compound 113] | ≥ 80 |  | ≥ 80 |  | ≥ 80 | 
34 | C#Cc1cnc2c(C)cc(OC(SC)C(=O)NCc3nccs3)cc2c1 (stereo not drawn) [Compound 116] |  |  | ≥ 80 |  | ≥ 80 | 
35 | C#Cc1cnc2c(Cl)cc(OC(SC)C(=O)NCc3nccs3)cc2c1 (stereo not drawn) [Compound 117] | ≥ 80 |  | ≥ 80 |  | ≥ 80 | 
36 | C=Cc1cnc2ccc(OC(SC)C(=O)NC(C)(C)c3ccccn3)cc2c1 (stereo not drawn) [Compound 133, N-[1-methyl-1-(2-pyridyl)ethyl]-2-methylsulfanyl-2-[(3-vinyl-6-quinolyl)oxy]acetamide] |  | 95 to 97 °C |  |  |  | 
37 | C=Cc1cnc2c(Cl)cc(OC(OC)C(=O)NC(C)(C)c3ccccn3)cc2c1 (stereo not drawn) [Compound 134] | ≥ 80 | 93 °C | ≥ 80 |  |  | ≥ 80
38 | C=Cc1cnc2c(Cl)cc(OC(CC)C(=O)NC(C)(C)c3ccon3)cc2c1 (stereo not drawn) [Compound 136] | ≥ 80 | 104 °C | ≥ 80 |  |  | 
39 | C=Cc1cnc2c(F)cc(OC(CC)C(=O)NC(C)(C)c3nccs3)cc2c1 (stereo not drawn) [Compound 137] | ≥ 80 | 102 °C | ≥ 80 | ≥ 80 |  | ≥ 80
40 | C=Cc1cnc2c(F)cc(OC(OC)C(=O)NC(C)(C)c3ccon3)cc2c1 (stereo not drawn) [Compound 138] | ≥ 80 | 118 °C |  |  |  | 
41 | C=Cc1cnc2c(F)cc(OC(CC)C(=O)NC(C)(C)c3cc(CC)on3)cc2c1 (stereo not drawn) [Compound 139] |  | 114 °C | ≥ 80 | ≥ 80 |  | ≥ 80
42 | COC(Oc1cc(Cl)c2ncc(Br)cc2c1)C(=O)NC(C)(C)c1nccs1 (stereo not drawn) [Compound 140] | ≥ 80 | 111 °C |  |  |  | 
